Results reported in paper PMC12300041, “Tricyclic Isatin Derivatives as Anti-Inflammatory Compounds with High Kinase Binding Affinity” (Molecules, 2025).

What was measured:
Assay in all cases: KINOMEscan
Format in all cases: binding
[1] = target: T1, EGFR (L858R, T790M) (Homo sapiens, UniProt P00533, L858R/T790M)
T1 construct: purchased Eurofins DiscoverX KINOMEscan
Procedure, shortened: (§1)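 Read-out is qPCR of kinase not bound to the test compound, recovered by capture on an immobilized affinity ligand after a 1 h room-temperature binding step. Dissociation constants came from 12 half-log dilutions starting at 33 μM.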

[2] = target: T2, MARK4 (Homo sapiens, UniProt Q96L34)
T2 construct: purchased Eurofins DiscoverX KINOMEscan
Procedure, shortened: as §1

[3] = target: T3, MAPKAPK2 (Homo sapiens, UniProt P49137)
T3 construct: purchased Eurofins DiscoverX KINOMEscan
Procedure, shortened: (§2)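 Binding reactions proceed for 1 h at room temperature. Kinase not bound by compound is captured on immobilized affinity ligand and quantified by qPCR; Kd is fitted over 12 half-log concentrations, top 33 μM.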

[4] = target: T4, PRKD1 (Homo sapiens, UniProt Q15139)
T4 construct: purchased Eurofins DiscoverX KINOMEscan
Procedure, shortened: as §2

[5] = target: T5, CDK9 (Homo sapiens, UniProt P50750)
T5 construct: purchased Eurofins DiscoverX KINOMEscan
Procedure, shortened: as §2

[6] = target: T6, ABL1 (H396P)-non-P (Homo sapiens, UniProt P00519, H396P)
T6 construct: purchased Eurofins DiscoverX KINOMEscan
Procedure, shortened: as §2

[7] = target: T7, EGFR (L861Q) (Homo sapiens, UniProt P00533, L861Q)
T7 construct: purchased Eurofins DiscoverX KINOMEscan
Procedure, shortened: as §2

[8] = target: T8, LTK (Homo sapiens, UniProt P29376)
T8 construct: purchased Eurofins DiscoverX KINOMEscan
Procedure, shortened: as §2

[9] = target: T9, VPS34 (Homo sapiens, UniProt Q8NEB9)
T9 construct: purchased Eurofins DiscoverX KINOMEscan
Procedure, shortened: as §2

[10] = target: T10, DCAMKL2 (Homo sapiens, UniProt Q8N568)
T10 construct: purchased Eurofins DiscoverX KINOMEscan
Procedure, shortened: as §1

[11] = target: T11, BMPR1A (Homo sapiens, UniProt P36894)
T11 construct: purchased Eurofins DiscoverX KINOMEscan
Procedure, shortened: as §2

[12] = target: T12, SRPK1 (Homo sapiens, UniProt Q96SB4)
T12 construct: purchased Eurofins DiscoverX KINOMEscan
Procedure, shortened: as §1

[13] = target: T13, EGFR (S752-I759 del) (Homo sapiens, UniProt P00533, DEL752-759)
T13 construct: purchased Eurofins DiscoverX KINOMEscan
Procedure, shortened: as §2

[14] = target: T14, SGK3 (Homo sapiens, UniProt Q96BR1)
T14 construct: purchased Eurofins DiscoverX KINOMEscan
Procedure, shortened: as §1

[15] = target: T15, ERK4 (Homo sapiens, UniProt P31152)
T15 construct: purchased Eurofins DiscoverX KINOMEscan
Procedure, shortened: as §1

[16] = target: T16, GSK3A (Homo sapiens, UniProt P49840)
T16 construct: purchased Eurofins DiscoverX KINOMEscan
Procedure, shortened: as §2

[17] = target: T17, JNK3 (Homo sapiens, UniProt P53779)
T17 construct: purchased Eurofins DiscoverX KINOMEscan
Procedure, shortened: as §2

[18] = target: T18, PRKCI (Homo sapiens, UniProt P41743)
T18 construct: purchased Eurofins DiscoverX KINOMEscan
Procedure, shortened: as §2

[19] = target: T19, PDGFRB (Homo sapiens, UniProt P09619)
T19 construct: purchased Eurofins DiscoverX KINOMEscan
Procedure, shortened: as §2

[20] = target: T20, MAP4K5 (Homo sapiens, UniProt Q9Y4K4)
T20 construct: purchased Eurofins DiscoverX KINOMEscan
Procedure, shortened: as §2

[21] = target: T21, PDGFRA (Homo sapiens, UniProt P16234)
T21 construct: purchased Eurofins DiscoverX KINOMEscan
Procedure, shortened: as §1

[22] = target: T22, IRAK3 (Homo sapiens, UniProt Q9Y616)
T22 construct: purchased Eurofins DiscoverX KINOMEscan
Procedure, shortened: as §1

[23] = target: T23, MAP4K3 (Homo sapiens, UniProt Q8IVH8)
T23 construct: purchased Eurofins DiscoverX KINOMEscan
Procedure, shortened: as §2

[24] = target: T24, EPHA7 (Homo sapiens, UniProt Q15375)
T24 construct: purchased Eurofins DiscoverX KINOMEscan
Procedure, shortened: as §2

[25] = target: T25, NIM1 (Homo sapiens, UniProt Q8IY84)
T25 construct: purchased Eurofins DiscoverX KINOMEscan
Procedure, shortened: as §2

[26] = target: T26, CDKL3 (Homo sapiens, UniProt Q8IVW4)
T26 construct: purchased Eurofins DiscoverX KINOMEscan
Procedure, shortened: as §2

[27] = target: T27, NEK5 (Homo sapiens, UniProt Q6P3R8)
T27 construct: purchased Eurofins DiscoverX KINOMEscan
Procedure, shortened: as §2

[28] = target: T28, AAK1 (Homo sapiens, UniProt Q2M2I8)
T28 construct: purchased Eurofins DiscoverX KINOMEscan
Procedure, shortened: as §2

[29] = target: T29, TEC (Homo sapiens, UniProt P42680)
T29 construct: purchased Eurofins DiscoverX KINOMEscan
Procedure, shortened: as §2

[30] = target: T30, MYLK2 (Homo sapiens, UniProt Q9H1R3)
T30 construct: purchased Eurofins DiscoverX KINOMEscan
Procedure, shortened: as §2

[31] = target: T31, FYN (Homo sapiens, UniProt P06241)
T31 construct: purchased Eurofins DiscoverX KINOMEscan
Procedure, shortened: as §2

[32] = target: T32, IKK-α (Homo sapiens, UniProt O15111)
T32 construct: purchased Eurofins DiscoverX KINOMEscan
Procedure, shortened: as §1

[33] = target: T33, FGR (Homo sapiens, UniProt P09769)
T33 construct: purchased Eurofins DiscoverX KINOMEscan
Procedure, shortened: as §1

[34] = target: T34, LRRK2 (Homo sapiens, UniProt Q5S007)
T34 construct: purchased Eurofins DiscoverX KINOMEscan
Procedure, shortened: as §1

[35] = target: T35, RET (M918T) (Homo sapiens, UniProt P07949, M918T)
T35 construct: purchased Eurofins DiscoverX KINOMEscan
Procedure, shortened: as §2

[36] = target: T36, RPS6KA4 (Kin. Dom.1-N-term.) (Homo sapiens, UniProt O75676)
T36 construct: RPS6KA4 (Kin. Dom.1-N-term.); purchased Eurofins DiscoverX KINOMEscan
Procedure, shortened: as §1

[37] = target: T37, MYO3A (Homo sapiens, UniProt Q8NEV4)
T37 construct: purchased Eurofins DiscoverX KINOMEscan
Procedure, shortened: as §2

[38] = target: T38, MTOR (Homo sapiens, UniProt P42345)
T38 construct: purchased Eurofins DiscoverX KINOMEscan
Procedure, shortened: as §1

[39] = target: T39, CDK3 (Homo sapiens, UniProt Q00526)
T39 construct: purchased Eurofins DiscoverX KINOMEscan
Procedure, shortened: as §2

T11 sequence (P36894 24-532): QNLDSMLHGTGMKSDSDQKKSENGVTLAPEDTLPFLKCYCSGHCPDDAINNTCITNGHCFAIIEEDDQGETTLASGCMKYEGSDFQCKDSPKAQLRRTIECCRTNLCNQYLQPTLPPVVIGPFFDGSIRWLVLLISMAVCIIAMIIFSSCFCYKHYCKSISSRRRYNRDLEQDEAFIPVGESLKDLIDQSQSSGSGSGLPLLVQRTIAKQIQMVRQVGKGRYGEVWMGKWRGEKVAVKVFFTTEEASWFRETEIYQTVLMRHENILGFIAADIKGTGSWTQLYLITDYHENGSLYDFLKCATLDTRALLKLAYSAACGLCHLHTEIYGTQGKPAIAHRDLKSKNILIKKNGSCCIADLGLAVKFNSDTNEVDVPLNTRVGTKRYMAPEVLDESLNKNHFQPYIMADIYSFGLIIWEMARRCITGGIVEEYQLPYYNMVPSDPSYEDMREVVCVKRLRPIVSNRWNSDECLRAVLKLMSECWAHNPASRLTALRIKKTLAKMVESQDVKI
T2 sequence (Q96L34 whole entry): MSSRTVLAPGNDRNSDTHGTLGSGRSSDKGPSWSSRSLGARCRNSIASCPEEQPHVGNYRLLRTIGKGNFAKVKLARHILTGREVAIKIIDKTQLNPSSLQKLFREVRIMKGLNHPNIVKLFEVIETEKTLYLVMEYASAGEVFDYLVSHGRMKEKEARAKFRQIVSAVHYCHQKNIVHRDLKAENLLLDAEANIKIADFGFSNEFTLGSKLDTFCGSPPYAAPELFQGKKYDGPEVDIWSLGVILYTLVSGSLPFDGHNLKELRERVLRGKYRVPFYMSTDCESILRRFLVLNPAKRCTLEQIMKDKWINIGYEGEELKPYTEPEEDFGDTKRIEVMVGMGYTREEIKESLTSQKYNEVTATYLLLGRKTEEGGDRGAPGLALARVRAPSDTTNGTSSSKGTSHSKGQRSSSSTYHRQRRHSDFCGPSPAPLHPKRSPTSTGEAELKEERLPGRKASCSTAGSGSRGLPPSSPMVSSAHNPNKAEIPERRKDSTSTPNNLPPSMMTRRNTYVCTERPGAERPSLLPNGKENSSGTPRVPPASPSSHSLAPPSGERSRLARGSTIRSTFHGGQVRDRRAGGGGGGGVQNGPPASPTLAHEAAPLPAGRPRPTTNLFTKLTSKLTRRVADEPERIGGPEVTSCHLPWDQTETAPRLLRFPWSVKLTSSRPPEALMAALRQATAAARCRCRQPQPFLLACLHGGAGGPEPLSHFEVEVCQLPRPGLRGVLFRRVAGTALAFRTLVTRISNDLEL
T27 sequence (Q6P3R8 whole entry): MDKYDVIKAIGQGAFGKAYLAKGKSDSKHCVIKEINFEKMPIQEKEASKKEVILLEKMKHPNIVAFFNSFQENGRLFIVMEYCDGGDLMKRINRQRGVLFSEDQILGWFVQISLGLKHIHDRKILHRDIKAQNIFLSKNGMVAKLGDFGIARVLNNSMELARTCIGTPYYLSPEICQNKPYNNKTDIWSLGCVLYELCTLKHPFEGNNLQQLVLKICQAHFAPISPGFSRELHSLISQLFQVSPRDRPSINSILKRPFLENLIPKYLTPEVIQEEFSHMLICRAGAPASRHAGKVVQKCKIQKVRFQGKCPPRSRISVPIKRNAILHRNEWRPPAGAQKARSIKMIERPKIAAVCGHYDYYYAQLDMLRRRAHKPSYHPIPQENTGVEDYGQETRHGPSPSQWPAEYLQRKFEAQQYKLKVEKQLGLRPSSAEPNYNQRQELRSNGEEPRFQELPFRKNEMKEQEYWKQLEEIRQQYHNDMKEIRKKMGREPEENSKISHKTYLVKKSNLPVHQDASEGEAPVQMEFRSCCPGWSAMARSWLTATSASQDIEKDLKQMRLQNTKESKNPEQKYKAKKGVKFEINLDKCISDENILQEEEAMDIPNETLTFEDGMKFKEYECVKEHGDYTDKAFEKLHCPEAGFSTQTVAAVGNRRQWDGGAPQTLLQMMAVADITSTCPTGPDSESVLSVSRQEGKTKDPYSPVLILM
T19 sequence (P09619 33-1106): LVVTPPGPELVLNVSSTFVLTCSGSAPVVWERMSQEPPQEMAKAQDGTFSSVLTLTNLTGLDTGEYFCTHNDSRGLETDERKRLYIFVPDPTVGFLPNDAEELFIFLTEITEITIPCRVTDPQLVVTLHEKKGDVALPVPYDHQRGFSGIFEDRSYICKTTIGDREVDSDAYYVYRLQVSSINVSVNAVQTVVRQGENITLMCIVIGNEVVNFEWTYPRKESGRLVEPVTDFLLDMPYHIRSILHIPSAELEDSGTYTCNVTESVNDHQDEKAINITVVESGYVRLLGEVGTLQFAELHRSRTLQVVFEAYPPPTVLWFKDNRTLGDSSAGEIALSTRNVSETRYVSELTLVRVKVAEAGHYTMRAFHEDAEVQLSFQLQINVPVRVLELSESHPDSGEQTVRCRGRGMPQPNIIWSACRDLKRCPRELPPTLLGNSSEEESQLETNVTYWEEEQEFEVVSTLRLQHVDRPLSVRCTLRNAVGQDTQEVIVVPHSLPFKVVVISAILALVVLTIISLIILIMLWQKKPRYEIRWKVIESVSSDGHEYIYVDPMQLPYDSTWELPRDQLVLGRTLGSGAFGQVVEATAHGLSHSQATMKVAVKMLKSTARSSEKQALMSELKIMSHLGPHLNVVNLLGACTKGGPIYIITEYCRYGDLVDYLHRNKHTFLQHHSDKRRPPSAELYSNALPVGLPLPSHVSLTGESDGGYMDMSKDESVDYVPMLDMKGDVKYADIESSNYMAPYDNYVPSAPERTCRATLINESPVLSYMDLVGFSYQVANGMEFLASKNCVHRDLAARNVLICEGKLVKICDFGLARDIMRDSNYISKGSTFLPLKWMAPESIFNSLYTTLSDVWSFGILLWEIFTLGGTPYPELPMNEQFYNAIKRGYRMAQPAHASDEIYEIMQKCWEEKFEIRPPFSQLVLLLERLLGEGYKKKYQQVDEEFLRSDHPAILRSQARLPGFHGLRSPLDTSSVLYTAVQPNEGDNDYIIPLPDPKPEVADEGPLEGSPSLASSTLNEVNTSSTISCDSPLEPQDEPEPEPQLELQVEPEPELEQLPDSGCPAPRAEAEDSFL
T24 sequence (Q15375 28-998): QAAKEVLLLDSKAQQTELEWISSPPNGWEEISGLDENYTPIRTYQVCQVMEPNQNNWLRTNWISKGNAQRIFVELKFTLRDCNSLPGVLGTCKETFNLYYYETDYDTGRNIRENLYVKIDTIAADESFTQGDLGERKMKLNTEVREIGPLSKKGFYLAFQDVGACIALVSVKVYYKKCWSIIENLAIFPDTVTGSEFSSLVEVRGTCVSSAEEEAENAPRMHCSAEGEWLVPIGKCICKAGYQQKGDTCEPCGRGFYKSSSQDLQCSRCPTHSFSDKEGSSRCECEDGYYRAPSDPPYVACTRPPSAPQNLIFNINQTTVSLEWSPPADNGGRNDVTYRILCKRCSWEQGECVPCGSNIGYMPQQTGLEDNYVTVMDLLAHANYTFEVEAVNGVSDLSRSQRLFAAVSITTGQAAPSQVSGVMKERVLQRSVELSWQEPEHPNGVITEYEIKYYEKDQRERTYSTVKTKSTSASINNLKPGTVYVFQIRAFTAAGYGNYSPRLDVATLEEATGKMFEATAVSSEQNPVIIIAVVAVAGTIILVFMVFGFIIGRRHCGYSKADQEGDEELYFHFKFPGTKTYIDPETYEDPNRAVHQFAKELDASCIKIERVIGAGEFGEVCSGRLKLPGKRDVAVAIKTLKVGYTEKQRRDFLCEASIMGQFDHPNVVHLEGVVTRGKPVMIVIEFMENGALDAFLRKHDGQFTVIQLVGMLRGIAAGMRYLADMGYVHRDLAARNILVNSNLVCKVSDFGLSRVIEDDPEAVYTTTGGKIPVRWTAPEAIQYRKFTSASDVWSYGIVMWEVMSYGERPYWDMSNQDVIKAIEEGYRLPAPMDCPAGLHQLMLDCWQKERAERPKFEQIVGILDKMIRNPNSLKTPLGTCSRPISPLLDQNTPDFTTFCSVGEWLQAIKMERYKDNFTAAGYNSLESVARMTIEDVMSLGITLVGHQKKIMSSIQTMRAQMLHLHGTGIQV
T22 sequence (Q9Y616 whole entry): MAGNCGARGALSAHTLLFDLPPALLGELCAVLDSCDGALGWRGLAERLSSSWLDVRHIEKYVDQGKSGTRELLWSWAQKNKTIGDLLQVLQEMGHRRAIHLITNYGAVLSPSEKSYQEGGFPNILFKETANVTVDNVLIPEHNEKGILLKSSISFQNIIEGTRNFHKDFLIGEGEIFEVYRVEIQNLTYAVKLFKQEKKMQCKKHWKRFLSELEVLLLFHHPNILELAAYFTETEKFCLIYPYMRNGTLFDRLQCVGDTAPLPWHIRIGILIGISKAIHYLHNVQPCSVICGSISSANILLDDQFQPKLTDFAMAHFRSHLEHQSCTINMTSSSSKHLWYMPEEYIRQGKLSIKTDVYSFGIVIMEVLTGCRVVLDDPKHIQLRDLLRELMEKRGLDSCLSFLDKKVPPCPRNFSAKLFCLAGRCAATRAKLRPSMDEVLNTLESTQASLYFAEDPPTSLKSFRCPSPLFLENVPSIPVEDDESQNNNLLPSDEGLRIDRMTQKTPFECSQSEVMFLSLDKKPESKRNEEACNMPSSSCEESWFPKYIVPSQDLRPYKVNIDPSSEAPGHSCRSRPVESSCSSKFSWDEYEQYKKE
T17 sequence (P53779 whole entry): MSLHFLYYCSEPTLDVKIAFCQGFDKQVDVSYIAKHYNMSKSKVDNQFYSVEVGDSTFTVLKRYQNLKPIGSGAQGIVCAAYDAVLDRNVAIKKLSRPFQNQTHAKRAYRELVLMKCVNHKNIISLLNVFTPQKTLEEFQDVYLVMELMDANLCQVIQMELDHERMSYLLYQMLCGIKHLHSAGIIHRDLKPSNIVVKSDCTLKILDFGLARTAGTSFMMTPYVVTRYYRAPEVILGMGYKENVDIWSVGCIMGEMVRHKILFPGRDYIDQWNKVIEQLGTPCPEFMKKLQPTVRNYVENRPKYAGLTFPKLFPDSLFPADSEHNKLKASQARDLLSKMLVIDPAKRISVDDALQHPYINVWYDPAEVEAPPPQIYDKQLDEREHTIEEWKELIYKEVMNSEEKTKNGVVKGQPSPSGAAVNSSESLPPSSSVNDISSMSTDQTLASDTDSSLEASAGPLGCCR

O=C1Nc2c(cc([N+](=O)[O-])c3c2CCCC3)C1=NO [Compound 5d, 3-(Hydroxyimino)-5-nitro-1,3,6,7,8,9-hexahydro-2H-benzo[g]indol-2-one]
inhibition at 10 µM [1]: 2% | inhibition at 10 µM [2]: 20% | inhibition at 10 µM [3]: 9% | inhibition at 10 µM [4]: 61% | inhibition at 10 µM [5]: 0% | inhibition at 10 µM [6]: 65% | inhibition at 10 µM [7]: 12% | inhibition at 10 µM [8]: 64% | inhibition at 10 µM [9]: 27% | inhibition at 10 µM [10]: 0% | inhibition at 10 µM [11]: 18% | inhibition at 10 µM [12]: 53% | inhibition at 10 µM [13]: 16% | inhibition at 10 µM [14]: 55% | inhibition at 10 µM [15]: 0% | inhibition at 10 µM [16]: 57% | inhibition at 10 µM [17]: 52% | inhibition at 10 µM [18]: 49% | inhibition at 10 µM [19]: 0% | inhibition at 10 µM [20]: 12% | inhibition at 10 µM [21]: 0% | inhibition at 10 µM [22]: 32% | inhibition at 10 µM [23]: 11% | inhibition at 10 µM [24]: 9% | inhibition at 10 µM [25]: 52% | inhibition at 10 µM [26]: 7% | inhibition at 10 µM [27]: 7% | inhibition at 10 µM [28]: 91.8% | inhibition at 10 µM [29]: 9% | inhibition at 10 µM [30]: 30% | inhibition at 10 µM [31]: 0% | inhibition at 10 µM [32]: 52% | inhibition at 10 µM [33]: 0% | inhibition at 10 µM [34]: 96% | inhibition at 10 µM [35]: 8% | inhibition at 10 µM [36]: 26% | inhibition at 10 µM [37]: 51% | inhibition at 10 µM [38]: 56% | inhibition at 10 µM [39]: 13%
